Earlier results as cited in patent publication US20210329915A1, “ABSORPTION PROMOTER, FLYING-INSECT PEST REPELLENT FRAGRANCE-CONTAINING COMPOSITION, AND FLYING-INSECT PEST REPELLENT PRODUCT” (DAINIHON JOCHUGIKU Co., Ltd., priority 2018, published 2021).

First: CC(O)CO (stereo not drawn) [propylene glycol]
Second: CC(O)COC(C)COC(C)CO (stereo not drawn) [tripropylene glycol]
The “Vapor pressure at 20° C.” value of the first is higher: 10.7 Pa for the first, 0.67 Pa for the second.

Compared with `OCCOCCOCCO` [triethylene glycol], `OCCOCCO` [diethylene glycol] is higher in “Vapor pressure at 20° C.” value: 1 Pa for the first, 3 Pa for the second.

Going from `CCCCOCCOCCO` [diethylene glycol monobutyl ether] to `OCCOCc1ccccc1` [benzyl glycol], the “Vapor pressure at 20° C.” value falls from 3 Pa to 2.7 Pa.
